In data set [1] the test system is LNCaP_Vancouver prostate cells. In words: In Vitro LNCaP Vancouver Prostate Cell Proliferation Assay in Lipid Reduced Medium. The format is cell-based. Particulars: lipid reduced serum, 96 h, read-out: Vancouver Cells pIC50 (converted). How it is done: LNCaP_Vancouver prostate cells were obtained from the Vancouver Prostate Cancer Centre. Cells were maintained in RPMI-1640, 10% Fetal Calf Serum (FCS, Hyclone), 2 mM glutamine and 50 μg/ml Gentamicin.
For the proliferation experiment 1500 LNCaP_Vancouver cells per well were seeded in a 384-well black with clear bottom plate (costar 3712BC) in 40 μl RPMI-1640, 10% Lipid reduced serum (LRS, Hyclone), 50 μg/ml Gentamicin and 2 mM Glutamine and incubated at 37° C., 5% CO2. The next day 10 μl of test compound/DMSO diluted in medium was added (3E-5M, 1E-5M, 3E-6M, 1E-6M, 3E-7M, 1E-7M, 3E-8M, 1E-8M final concentration). Compounds were tested in duplicate. After 96 h incubation at 37° C., 5% CO2 25 μl ATP-glow mix was added. The plate was incubated for 30 min at 37° C. and luminescence was measured with the Envision.
(§1) pIC50 values were calculated as follows. Raw data generated by the instruments were normalized to % Controlmin values, which were calculated as: % Controlmin=100*(x−mLC)/(mHC−mLC),
(§2) where mLC and mHC are the means of the low control wells and high control wells on the plate, after manual exclusion of outliers. The relation between the % Controlmin values and concentration was fitted to a 4-parameter logistic curve using a non-linear least squares regression method to determine the pIC50 value. Outlying data points were excluded manually to get a correct fit. The pIC50 corresponds to −log 10(IC50), if the IC50 is expressed in molar units (http://www.ncbi.nlm.nih.gov/books/NBK91994). The IC50 parameter was always determined by non-linear regression, but one or more of the other parameters may have been held fixed on a relevant input value, such as 0 for the bottom values.
(§3) For dose response curves with FASN inhibitors in LNCaP_Vancouver or PC-3M-Luc_C6 cells the curves bottom out around 30 to 40% of the control value. A standard fit PL2, forcing the lower bound to this level was used.
(§4) Representative compounds of the present invention were tested according to the procedure as described in Biological Example 4a and 4b above, with results as listed in Table BIO-4, below.

A further data set has as its system HBV. In words: Antiviral Activity Against HBV Replication (HBV DNA, HepG2.117 cell line). The format is cell-based. The following applies: Hepatitis B virus, 72 h; HepG2.117 cells, 3 days, HBV DNA by realtime PCR. How it is done: (§5) The anti-HBV activity was measured using the HepG2.117 cell line, a stable, inducibly HBV producing cell line (SUN D., et al., “Stable HepG2- and Huh7-based human hepatoma cell lines for efficient regulated expression of infectious hepatitis B virus”, J. of Hepatology, 2006, pp 636-645, Vol. 45) which replicates HBV in the absence of doxycycline (Tet-off system). For the antiviral assay, HBV replication was induced, followed by a treatment with serially diluted compound in 96-well plates in duplicate. After 3 days of treatment, the antiviral activity was determined by quantification of intracellular or extracellular HBV DNA using realtime PCR and an HBV specific primer set and probe. Cytotoxicity of the test compounds was tested using HepG2 cells, incubated for 4 days in the presence of test compounds. The viability of the cells was assessed using a Resazurin assay. The CC50 was defined as the 50% concentration for cytotoxicity

Data set [2] has as its system PC-3M-Luc-C6 prostate cells. In words: In Vitro PC-3M-Luc-C6 Prostate Cell Proliferation Assay in Lipid Reduced Medium. The format is cell-based. The following applies: read-out: PC-3M-Luc-C6 Cells pIC50 (μM) (converted), lipid reduced serum, 96 h. The protocol: PC-3M-Luc-C6 prostate cells were obtained from Xenogen Corporation. Cells were maintained in MEM supplemented with 10% Fetal Calf Serum (FCS, Hyclone), 2 mM glutamine, 1 mM sodium pyruvate, 1% BME vitamins (available from for example, Sigma Aldrich), 0.1 mM non Essential Amino Acid and 50 μg/ml Gentamicin. The cells were passaged twice a week.
1000 PC-3M-Luc-C6 prostate cells (Xenogen) were seeded in a 384-well black with clear bottom plate (costar 3712BC) in 40 μl MEM, 10% LRS (Hyclo ne), 50 μg/ml Gentamicin, 2 mM Glutamine, 1 mM Sodium pyruvaat, 1% BME vitamins and 0.1 mM non Essential Amino Acid and incubated at 37° C., 5% CO2. The next day 10 μl test compound/DMSO diluted in medium was added (3E-5M, 1E-5M, 3E-6M, 1E-6M, 3E-7M, 1E-7M, 3E-8M, 1E-8M final concentration). Compounds were tested in duplicate. After 96 h incubation at 37° C., 5% CO2 25 μl ATP-glow mix was added. The plate was incubated for 30 min at 37° C. and luminescence was measured with the Envision.
as §1, §2, §3, §4

The next data set concerns A2780 ovarian cells. Kind of data set: A2780 Ovarian Cell Proliferation Assay in Lipid Reduced Medium, without Palmitate. Particulars: Homo sapiens, A2780, 96 h, read-out: Proliferation A2780 w/o Palmitate pIC50 (μM) (converted). The class given is cell-based. Summed up: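 A2780 cells were seeded in 10% FCS medium and switched next day to 10% lipid-reduced serum without palmitate. Compounds at 0.01–30 μM were added with 0.2% DMSO, 0.2% fatty-acid-free BSA and 0.25% ethanol final. After 96 h, MTT absorbance at 544 nm was normalized to plate controls, and IC50/pIC50 came from a 4-parameter logistic fit.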

The nature of data set [3]: Toxicity Huh7-ATP (cytotoxicity alongside the HCV replicon assay). The following applies: human, Huh7 cells. Background: Replicon systems follow genome replication, usually without infectious particles.
Data set [4] can be described thus: Cytotoxicity in HepG2 cells (Resazurin assay). The format is cell-based. The following applies: human, read-out: CC50 (Toxicity HepG2-4d). The protocol: as §5

Turning to `Cc1ccc(C(=O)N2CCC(c3ccc(-c4cnn(C)c4)cc3)CC2)cc1NC(=O)c1ccc(NC(C)C)nc1` [Compound #32, 6-(isopropylamino)-N-(2-methyl-5-(4-(4-(1-methyl-1H-pyrazol-4-yl)phenyl)piperidine-1-carbonyl)phenyl)nicotinamide], the values for the IC50 (in data set [1]; in data set [2]; in the data set with A2780 ovarian cells) were 93.3 nM, 0.01 µM and 0.0135 µM, respectively. The same molecule showed an EC50 with HBV above 5000 nM. This molecule also came in with a CC50 in data set [3] above 25000 nM. Also, the CC50 at 4 days in data set [4] was above 25000 nM.

In general, EC50 refers to the concentration at which the effect is half-maximal. A high value points to a less potent agent. As usually defined, the CC50 is the concentration giving 50% cytotoxicity.

These data come from patent US9562035B2, “Benzamide derivative useful as FASN inhibitors for the treatment of cancer” (Janssen Pharmaceutica NV, priority 2013, dated 2017).
